Results on 79 compounds are retold here after the METLIN SMRT retention time set (Domingo-Almenara et al. 2019).

This data set in a line: gradient 5% acetonitrile 3 min, to 50% in 2 min, to 85% in 15 min, held 3 min, 100 µL/min. Particulars: column: Zorbax Extend-C18 2.1 x 50 mm; eluents: water / acetonitrile, 0.1% formic acid. In outline: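 The mobile phases were water and acetonitrile, each with 0.1% formic acid, pumped at 100 μL/min through a Zorbax Extend-C18 column (2.1 × 50 mm, 1.8 μm). Pure standards were injected as mixtures of ~100 molecules and detected by a quadrupole time-of-flight mass spectrometer in positive and negative ionization mode. Retention time came from computationally picked adduct peaks, each inspected by hand.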
For `CCCNC(=O)c1cc2n(n1)CC(C)(C(=O)NCc1ccc(F)cc1)N(C)C2=O` (centres undefined), the RP-LC retention time was 688 s.
As for `CCOc1ccc(NC(=O)C2CCN(c3cncnc3N3CCOCC3)CC2)cc1`, the RP-LC retention time is 651 s.
Then `CCn1cnc(S(=O)(=O)N2CCC(C(=O)Nc3ccccc3)CC2)c1`, with 701 s; and `COc1ccc(CC(=O)N2CCC(Nc3ncnc4c3CCC4)C2)cc1` (centres undefined), with 595 s.
As to `COC(=O)c1ccc2c(=O)n(-c3cccc(Cl)c3)c(N3CCN(c4ccccn4)CC3)nc2c1`, the RP-LC retention time stood at 744 s.
The figure for `Cc1ccc(Cn2nc3n(Cc4ccc(F)cc4)c(=O)c4nn(C)cc4n3c2=O)cc1` is 952 s; for `CC(C)CCN1C[C@@H]2C(=O)N(CCN3CCc4ccccc4C3)C(=O)[C@@H]2C1` it is 561 s; for `Cc1ccccc1S(=O)(=O)N1CCC(CCC(=O)NC2CC2)CC1` it is 791 s.
In turn, `CCCCN1CCN(C(=O)CCC2CCCN(c3cc(NC4CC4)ncn3)C2)CC1` (centres undefined) yielded an RP-LC retention time of 565 s.
With `O=c1c(S(=O)(=O)N2CCCCCC2)cccn1Cc1ccccc1F`, the RP-LC retention time was determined as 941 s.
`CCCN1CCN(C(=O)C2CCN(c3cnn(CCC)c(=O)c3)CC2)CC1` registered an RP-LC retention time of 570 s.
The figure for `CCC1Oc2ccc(S(=O)(=O)N3CCC(C(=O)Nc4ccc(C)cc4C)CC3)cc2NC1=O` (centres undefined) is 868 s.
Then `Cc1ccc(CNC(=O)N(C)CC2CCOCC2)cc1`, with 713 s.
Then `CCCNc1cc(N2CCC(CCC(=O)NC(C)C)CC2)ncn1`, with 602 s.
As to `Cn1c(N2CCC(C(=O)NCCCN3CCC(Cc4ccccc4)CC3)CC2)cc(=O)n(C)c1=O`, the RP-LC retention time was determined as 631 s.
On to `COc1ccccc1NC(=O)N1C[C@H](c2nc(-c3ccccc3)no2)[C@@H](C)C1`, for which the RP-LC retention time worked out at 883 s.
Take `Cc1ccc(S(=O)(=O)Nc2ccc(-c3cn4cccc(C)c4n3)cc2)c(C)c1`: the RP-LC retention time came out at 688 s.
Then `COc1cccc(NC(=O)N2CCC(c3cc(N)on3)CC2)c1`, with 653 s.
As for `CNC(=O)[C@@H]1CN(C(=O)c2noc(C)c2COC)C[C@H]1c1nc(C)no1`, the RP-LC retention time came to 619 s.
The figure for `CCC(=O)Nc1ccc(S(=O)(=O)NC2CCN(c3ccc(=O)n(CC4CC4)n3)C2)cc1` (centres undefined) is 712 s; for `COC(=O)c1ccccc1NC(=O)Cn1c(=O)n(-c2ccccc2)c(=O)c2c1cc(C)n2C` it is 911 s; for `CC1CCN(S(=O)(=O)c2ccc(Cl)c(-c3nnc(-c4ccccc4)o3)c2)CC1` it is 1250 s.
Then `CC(=O)N1CCc2sc(C(=O)N3CCN(c4cc(C)ccc4C)CC3)cc2C1`, with 904 s; and `CCn1cc(C)c(C(=O)O)c1CC(=O)Nc1ccc(F)cc1F`, with 811 s; and `COc1ccc(-c2nc(Nc3ccc(C)cc3)sc2C)cc1`, with 1060 s.
Compound `CCCNC(=O)C1CCCN(c2ccc(SCC(=O)Nc3ccc(OC)cc3)nn2)C1` (centres undefined) had an RP-LC retention time of 647 s.
`O=C(CN1C(=O)COc2ccc(C(=O)N3CCN(c4ccccn4)CC3)cc21)N1CCCC1` registered an RP-LC retention time of 572 s.
The figure for `CCCC(=O)Nc1cc2c(cc1N1CCC(C(=O)OCC)CC1)n(C)c(=O)c(=O)n2C` is 804 s.
The figure for `COc1ccc(-c2cc3n(n2)CCCN(C(=O)Nc2ccccc2F)C3)cc1OC` is 885 s; for `O=S(=O)(Cc1ccccc1Cl)NCCN1CCN(c2ccc(F)cc2)CC1` it is 591 s.
In turn, `Cc1csc(-c2cc(S(=O)(=O)N3CCN(CC(C)C)CC3)cn2CC(=O)N2CCCCC2)n1` displayed an RP-LC retention time of 724 s.
The figure for `NC(=O)c1nsc2c(=O)n(CC(=O)NCc3ccco3)cnc12` is 589 s; for `COc1cccc(-c2nnc(Cc3nc(-c4ccc(OC)c(OC)c4)no3)o2)c1` it is 894 s; for `CCN(CC)C(=O)c1ccc(-n2nc(C)c3c2CCCC3=O)cc1` it is 691 s.
Consider `Cc1cc2cc(CNC(=O)Nc3cccc(Cl)c3)ccc2[nH]1`, for which the RP-LC retention time turned out to be 843 s.
Compound `CCN(CC)CCCNC(=O)C(C)n1c(=O)c(C(F)(F)F)nc2cc(C)c(C)cc21` (centres undefined) had an RP-LC retention time of 740 s.
Compound `COc1ccc(OCc2noc(CNC(=O)Nc3cc(OC)c(OC)c(OC)c3)n2)cc1` yielded an RP-LC retention time of 743 s.
The figure for `CCN1CCN(CCCNC(=O)c2sc3ncccc3c2-n2c(C)ccc2C)CC1` is 607 s; for `O=C(NCc1ccco1)C1CCCN(c2ccc(-c3ccccc3)nn2)C1` (centres undefined) it is 654 s.
`Cn1ncc2c(N3CCCC3)nc(C(=O)NCc3ccc(F)cc3)nc21`: the RP-LC retention time came to 790 s.
Turning to `CC(C)CCNC(=O)C1(C)CN(S(=O)(=O)c2ccccc2)CC(=O)N1CCCc1ccccc1` (centres undefined), the RP-LC retention time worked out at 1050 s.
Then `Cc1cccc(NC(=O)N2CCCC(C)(C(=O)NCc3ccc(F)cc3)C2)c1C` (centres undefined), with 929 s; and `COc1ccc(-c2nc(-c3cn(-c4ccc(C)cc4)nn3)no2)cc1OC`, with 1050 s; and `COc1ccc(CN2CCCN(c3cc(-c4ccccc4)[nH]n3)CC2)c(O)c1`, with 620 s.
`COc1ccc(-c2nc(-c3ccc4ncn(C(C)C)c4c3)no2)cc1OC`: the RP-LC retention time was determined as 727 s.
Then `CCOC(=O)CC(=O)CSc1nc2sc(C)cc2c(=O)n1C`, with 961 s.
In the case of `COCC1(O)CCOC2(CCN(Cc3c(F)cccc3Cl)CC2)C1` (centres undefined), the RP-LC retention time is 543 s.
Take `CSc1ccc(CN2CC(c3nc(C)no3)C2)cc1`: the RP-LC retention time was found to be 530 s.
The figure for `COc1cccc(CNC(=O)C2(c3ccc(NC(C)=O)cc3)CCC2)c1` is 737 s; for `CCOC(=O)c1cnn2c(C(F)(F)F)cc(-c3ccc(F)cc3)nc12` it is 1110 s.
`CCOC(=O)c1ccc(Nc2c(-c3ccccc3)nc3cnccn23)cc1` gave an RP-LC retention time of 849 s.
Take `Cc1ccccc1NC(=O)CSc1ccc(N2CCCC(C(=O)NC3CC3)C2)nn1` (centres undefined): the RP-LC retention time is 637 s.
Compound `COC(=O)c1cnc2nc(C)ccc2c1Nc1ccccc1` displayed an RP-LC retention time of 627 s.
The figure for `O=C(NCc1cc(F)cc(F)c1)C1CCN(c2ncnc3c2oc2ccccc23)CC1` is 752 s; for `O=C(Nc1nnc(SCc2cccc(Cl)c2)s1)c1ccccc1C(F)(F)F` it is 1010 s; for `O=C(Cc1ccc(Br)cc1)NC1CCN(c2cc(-c3ccc(Cl)cc3)[nH]n2)C1` (centres undefined) it is 854 s.
Compound `CN(C)c1nc(C(=O)N2CCN(c3cccc(Cl)c3)CC2)nc2c1cnn2C` gave an RP-LC retention time of 818 s.
`COc1ccc(-c2nc3n(n2)C2(CCCCC2)[C@@H]2CCCC[C@@H]2N3C(=O)c2cccs2)cc1`: the RP-LC retention time amounted to 1270 s.
On to `Cc1ccccc1Nc1c(-c2cc(Br)ccc2F)nc2ccccn12`, for which the RP-LC retention time came to 808 s.
Then `CCOC(=O)c1c(C)oc2ncnc(NCc3ccccn3)c12`, with 671 s; and `Cc1ccc(C)c(N2CCN(C(=O)Cn3cccc3-c3nnc(C4CC4)o3)CC2)c1`, with 1020 s; and `COc1cccc(OCC2c3ccsc3CCN2C(=O)CN(C(C)=O)C2CC2)c1` (centres undefined), with 807 s.
The figure for `CC(C)Oc1ccc(C(=O)N(Cc2ccc(Br)o2)C2CCS(=O)(=O)C2)cc1` (centres undefined) is 963 s; for `CCC(=O)Nc1ccc(C2(C(=O)N3CCCCCC3)CCC2)cc1` it is 801 s.
Then `CC(=O)N1CCCc2cc(S(=O)(=O)N3CCC(C(=O)N4CCc5ccccc5C4)CC3)ccc21`, with 843 s.
The compound `COC(=O)C1=C(COc2ccc(C)cc2)NC(=O)NC1c1ccc(OC)c(OC)c1` (centres undefined) came in with an RP-LC retention time of 976 s.
`COc1ccc(C2c3cc4c(c(OC)c3CC3OCC(=O)C32)OCO4)cc1OC` (centres undefined): the RP-LC retention time worked out at 609 s.
Regarding `CCc1cc(C(=O)Nc2cccc(F)c2)nc2ccnn12`, the RP-LC retention time came to 998 s.
As for `O=C(Cn1ccn2nc(-c3ccc(F)cc3)c(CO)c2c1=O)Nc1ccc(F)cc1F`, the RP-LC retention time worked out at 821 s.
Then `CCN1C(=O)CN(C(=O)C2CC2)CC12CCOCC2`, with 584 s.
Then `CCOC(=O)c1c(N)n(-c2ccccc2OC)c2nc3ccccc3nc12`, with 691 s; and `CCC(C)N(CC(=O)N1CCc2sccc2C1COc1ccccc1C)C(=O)COC` (centres undefined), with 942 s.
Then `COc1cc(NS(=O)(=O)c2ccc(Nc3nc(-c4ccc(C)cc4)cs3)cc2)nc(OC)n1`, with 1100 s; and `CCOc1ccc(CNC(=O)C2CCN(Cc3cn(C)c4ccccc34)CC2)cc1OCC`, with 708 s; and `CC1CCCN(c2ccc(-c3noc(CN4CCN(c5ccccn5)CC4)n3)cn2)C1` (centres undefined), with 908 s.
The compound `CCCCNC(=O)C1CCN(c2nc(NC(C)=O)c(C(=O)N3CCCC3)s2)CC1` showed an RP-LC retention time of 683 s.
Compound `CCCn1cc(C(=O)N2CCc3ccccc32)c2nn(-c3ccccc3)c(=O)c-2c1` returned an RP-LC retention time of 840 s.
The figure for `CCOC(=O)c1noc2ncnc(N3CCN(c4cccc(Cl)c4)CC3)c12` is 1150 s.
On to `O=c1c(-c2ccccc2)c(N2CCN(c3ccccn3)CC2)c1=O`, for which the RP-LC retention time is 620 s.
